Test results published in BindingDB's records for patent US20230348467 (Zhejiang Hisun Pharmaceutical, 2023).

Molecular target: T1, Tyrosine-protein phosphatase non-receptor type 11 (Homo sapiens, UniProt Q06124)
T1 sequence (Q06124 whole entry): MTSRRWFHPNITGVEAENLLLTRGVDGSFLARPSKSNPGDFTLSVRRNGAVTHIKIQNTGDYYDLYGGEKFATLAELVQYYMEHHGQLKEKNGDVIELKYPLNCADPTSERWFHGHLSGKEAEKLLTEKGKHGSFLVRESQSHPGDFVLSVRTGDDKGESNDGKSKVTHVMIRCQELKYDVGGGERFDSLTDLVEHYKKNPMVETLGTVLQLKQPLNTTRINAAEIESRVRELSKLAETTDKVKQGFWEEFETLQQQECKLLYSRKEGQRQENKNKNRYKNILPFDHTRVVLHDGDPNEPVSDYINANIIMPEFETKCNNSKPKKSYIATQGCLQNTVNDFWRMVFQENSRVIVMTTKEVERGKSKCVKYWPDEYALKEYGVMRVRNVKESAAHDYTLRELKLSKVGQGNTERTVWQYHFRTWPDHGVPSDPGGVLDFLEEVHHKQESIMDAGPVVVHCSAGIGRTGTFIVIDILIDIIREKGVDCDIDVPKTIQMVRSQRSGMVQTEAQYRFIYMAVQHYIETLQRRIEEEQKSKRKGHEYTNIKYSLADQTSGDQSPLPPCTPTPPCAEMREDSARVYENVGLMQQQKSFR
Assay: Determination of Allosteric Inhibition Activities of the Compounds of the Present Invention on SHP2
Description: he experimental process was briefly described as follows: Test compounds were first dissolved in DMSO to prepare storage solutions. […] Then, the compounds to be tested were added in a concentration range of 0.00004-10 uM and incubated at 25 C. for 60 minutes. Then DiFMUP (Thermo, D6567) was added in the reaction and incubated at 25 C. for 30 minutes. After incubation, readings were taken using a microplate reader (BMG) with excitation and emission wavelengths of 340 nm and 450 nm, respectively.

IC50 [nM]	SMILES
3	NC(=O)c1nc(N2CCC(N)(c3cccc(O)c3)CC2)nc2[nH]nc(-c3cccc(Cl)c3Cl)c12 [US20230348467, Compound 51]
7	NC1(c2ccccc2)CCN(c2nc(C(=O)O)c3c(-c4cccc(Cl)c4Cl)n[nH]c3n2)CC1 [US20230348467, Compound 10]

SMILES	IC50 [nM]
NC(=O)c1nc(N2C3CCC2CC(N)C3)nc2[nH]nc(-c3cccc(Cl)c3Cl)c12 (stereo not drawn) [US20230348467, Compound 17]	4
